Test results published in PubChem BioAssay AID256 (DTP/NCI, 2004).
“And” between values parts separate entries of the source, which are not always exact repeats. Identical values can stand only once. Inconclusive results and toxic doses are left out.

Tested on: CD2F1 mice, L1210 leukemia ip, survival T/C
Experiment: NCI In Vivo Anticancer Drug Screen. Data for tumor model L1210 Leukemia (intraperitoneal) in CD2F1 (CDF1) mice
Conditions: higher = longer survival
Procedure, shortened: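 Vehicle-treated tumor-bearing mice served as controls (C) for compound-treated mice (T). Reported figure is T divided by C.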

Q: Which results are given for `CC1CCC(NC(=O)N(CCCl)N=O)CC1` (stereo not given)?
A: T/C (endpoint: mean survival time, dose: 0.5 mg/kg/injection, schedule: Q01DX009 (ip), vehicle: saline + alcohol): 96 % of control; T/C (endpoint: mean survival time, dose: 1.0 mg/kg/injection, schedule: Q01DX009 (ip), vehicle: saline + alcohol): 109 % of control; T/C (endpoint: mean survival time, dose: 2.0 mg/kg/injection, schedule: Q01DX009 (ip), vehicle: saline + alcohol): 109 % of control; T/C (endpoint: mean survival time, dose: 3.12 mg/kg/injection, schedule: Q01DX001 (ip), vehicle: other): 105 % of control and 110 % of control; T/C (endpoint: mean survival time, dose: 3.13 mg/kg/injection, schedule: Q01DX001 (ip), vehicle: saline with Tween-80): 103 % of control; T/C (endpoint: mean survival time, dose: 4.0 mg/kg/injection, schedule: Q01DX001 (ip), vehicle: other): 107 % of control; T/C (endpoint: mean survival time, dose: 4.0 mg/kg/injection, schedule: Q01DX001 (ip), vehicle: saline + alcohol): 104 % of control; T/C (endpoint: mean survival time, dose: 4.0 mg/kg/injection, schedule: Q01DX009 (ip), vehicle: saline + alcohol): 151 % of control and 185 % of control; T/C (endpoint: mean survival time, dose: 5.0 mg/kg/injection, schedule: Q04DX003 (ip), vehicle: other): 192 % of control; T/C (endpoint: mean survival time, dose: 6.25 mg/kg/injection, schedule: Q01DX001 (ip), vehicle: saline + alcohol): 98 % of control; T/C (endpoint: mean survival time, dose: 6.25 mg/kg/injection, schedule: Q01DX001 (ip), vehicle: saline with Tween-80): 114 % of control; T/C (endpoint: mean survival time, dose: 8.0 mg/kg/injection, schedule: Q01DX009 (ip), vehicle: saline + alcohol): 175 % of control and 229 % of control; T/C (endpoint: mean survival time, dose: 8.0 mg/kg/injection, schedule: Q08DX002 (ip), vehicle: saline + alcohol): 206 % of control; T/C (endpoint: mean survival time, dose: 10.0 mg/kg/injection, schedule: Q04DX003 (ip), vehicle: other): 371 % of control; T/C (endpoint: mean survival time, dose: 12.5 mg/kg/injection, schedule: Q01DX001 (ip), vehicle: distilled water + Tween-80): 340 % of control; T/C (endpoint: mean survival time, dose: 12.5 mg/kg/injection, schedule: Q01DX001 (ip), vehicle: saline + alcohol): 104 % of control; T/C (endpoint: mean survival time, dose: 16.0 mg/kg/injection, schedule: Q01DX001 (ip), vehicle: other): 283 % of control; T/C (endpoint: mean survival time, dose: 16.0 mg/kg/injection, schedule: Q01DX001 (ip), vehicle: saline + alcohol): 120 % of control; T/C (endpoint: mean survival time, dose: 16.0 mg/kg/injection, schedule: Q01DX009 (ip), vehicle: saline + alcohol): 207 % of control; T/C (endpoint: mean survival time, dose: 16.0 mg/kg/injection, schedule: Q08DX002 (ip), vehicle: saline + alcohol): 289 % of control; T/C (endpoint: mean survival time, dose: 20.0 mg/kg/injection, schedule: Q04DX003 (ip), vehicle: other): 392 % of control; T/C (endpoint: mean survival time, dose: 24.0 mg/kg/injection, schedule: Q01DX009 (ip), vehicle: saline + alcohol): 107 % of control; T/C (endpoint: mean survival time, dose: 24.0 mg/kg/injection, schedule: Q08DX002 (ip), vehicle: saline + alcohol): 550 % of control; T/C (endpoint: mean survival time, dose: 25.0 mg/kg/injection, schedule: Q01DX001 (ip), vehicle: distilled water + Tween-80): 406 % of control; T/C (endpoint: mean survival time, dose: 25.0 mg/kg/injection, schedule: Q01DX001 (ip), vehicle: saline + alcohol): 95 % of control; T/C (endpoint: mean survival time, dose: 25.0 mg/kg/injection, schedule: Q01DX001 (ip), vehicle: saline with Tween-80): 393 % of control; T/C (endpoint: mean survival time, dose: 27.0 mg/kg/injection, schedule: Q01DX001 (ip), vehicle: saline with Tween-80): 813 % of control; T/C (endpoint: mean survival time, dose: 32.0 mg/kg/injection, schedule: Q01DX001 (ip), vehicle: other): 357 % of control; T/C (endpoint: mean survival time, dose: 32.0 mg/kg/injection, schedule: Q01DX001 (ip), vehicle: saline + alcohol): 451 % of control; T/C (endpoint: mean survival time, dose: 32.0 mg/kg/injection, schedule: Q01DX009 (ip), vehicle: saline + alcohol): 256 % of control and 103 % of control; T/C (endpoint: mean survival time, dose: 40.0 mg/kg/injection, schedule: Q01DX001 (ip), vehicle: saline with Tween-80): 555 % of control; T/C (endpoint: mean survival time, dose: 48.0 mg/kg/injection, schedule: Q01DX009 (ip), vehicle: saline + alcohol): 96 % of control; T/C (endpoint: mean survival time, dose: 50.0 mg/kg/injection, schedule: Q01DX001 (ip), vehicle: saline + alcohol): 158 % of control; T/C (endpoint: mean survival time, dose: 50.0 mg/kg/injection, schedule: Q01DX001 (ip), vehicle: saline with Tween-80): 213 % of control and 473 % of control; T/C (endpoint: mean survival time, dose: 64.0 mg/kg/injection, schedule: Q01DX001 (ip), vehicle: other): 204 % of control; T/C (endpoint: mean survival time, dose: 64.0 mg/kg/injection, schedule: Q01DX009 (ip), vehicle: saline + alcohol): 86 % of control; T/C (endpoint: median survival time, dose: 3.12 mg/kg/injection, schedule: Q01DX001 (ip), vehicle: other): 121 % of control and 110 % of control; T/C (endpoint: median survival time, dose: 3.12 mg/kg/injection, schedule: Q01DX001 (ip), vehicle: saline): 98 % of control and 101 % of control; T/C (endpoint: median survival time, dose: 6.25 mg/kg/injection, schedule: Q01DX001 (ip), vehicle: other): 158 % of control; T/C (endpoint: median survival time, dose: 6.25 mg/kg/injection, schedule: Q01DX001 (ip), vehicle: saline): 98 % of control and 103 % of control; T/C (endpoint: median survival time, dose: 9.0 mg/kg/injection, schedule: Q04DX002 (ip), vehicle: saline + Tween-80 + alcohol): 180 % of control; T/C (endpoint: median survival time, dose: 12.5 mg/kg/injection, schedule: Q01DX001 (ip), vehicle: other): 159 % of control and 297 % of control; T/C (endpoint: median survival time, dose: 12.5 mg/kg/injection, schedule: Q01DX001 (ip), vehicle: saline): 103 % of control; T/C (endpoint: median survival time, dose: 14.4 mg/kg/injection, schedule: Q01DX001 (ip), vehicle: saline + alcohol): 718 % of control; T/C (endpoint: median survival time, dose: 14.4 mg/kg/injection, schedule: Q01DX001 (ip), vehicle: saline with Tween-80): 121 % of control; T/C (endpoint: median survival time, dose: 14.4 mg/kg/injection, schedule: Q04DX002 (ip), vehicle: saline + alcohol): 622 % of control; T/C (endpoint: median survival time, dose: 15.0 mg/kg/injection, schedule: Q04DX002 (ip), vehicle: saline + Tween-80 + alcohol): 351 % of control; T/C (endpoint: median survival time, dose: 24.0 mg/kg/injection, schedule: Q01DX001 (ip), vehicle: other): 581 % of control; T/C (endpoint: median survival time, dose: 24.0 mg/kg/injection, schedule: Q01DX001 (ip), vehicle: saline + alcohol): 718 % of control; T/C (endpoint: median survival time, dose: 24.0 mg/kg/injection, schedule: Q04DX002 (ip), vehicle: saline + alcohol): 623 % of control; T/C (endpoint: median survival time, dose: 25.0 mg/kg/injection, schedule: Q01DX001 (ip), vehicle: other): 297 % of control and 340 % of control; T/C (endpoint: median survival time, dose: 25.0 mg/kg/injection, schedule: Q04DX002 (ip), vehicle: saline + Tween-80 + alcohol): 244 % of control; T/C (endpoint: median survival time, dose: 36.0 mg/kg/injection, schedule: Q01DX001 (ip), vehicle: other): 580 % of control; T/C (endpoint: median survival time, dose: 40.0 mg/kg/injection, schedule: Q01DX001 (ip), vehicle: saline + alcohol): 720 % of control; T/C (endpoint: median survival time, dose: 40.0 mg/kg/injection, schedule: Q01DX001 (ip), vehicle: saline with Tween-80): 157 % of control; T/C (endpoint: median survival time, dose: 40.0 mg/kg/injection, schedule: Q01DX001 (oral), vehicle: saline with Tween-80): 393 % of control and 590 % of control and 983 % of control; T/C (endpoint: median survival time, dose: 40.0 mg/kg/injection, schedule: Q04DX002 (ip), vehicle: saline + alcohol): 286 % of control; T/C (endpoint: median survival time, dose: 42.0 mg/kg/injection, schedule: Q04DX002 (ip), vehicle: saline + Tween-80 + alcohol): 170 % of control; T/C (endpoint: median survival time, dose: 50.0 mg/kg/injection, schedule: Q01DX001 (ip), vehicle: other): 158 % of control and 193 % of control; T/C (endpoint: median survival time, dose: 50.0 mg/kg/injection, schedule: Q01DX001 (oral), vehicle: saline with Tween-80): 193 % of control and 983 % of control (2×); T/C (endpoint: median survival time, dose: 60.0 mg/kg/injection, schedule: Q01DX001 (ip), vehicle: other): 119 % of control; T/C (endpoint: median survival time, dose: 60.0 mg/kg/injection, schedule: Q01DX001 (oral), vehicle: saline with Tween-80): 185 % of control and 983 % of control (2×); T/C (endpoint: median survival time, dose: 66.7 mg/kg/injection, schedule: Q01DX001 (ip), vehicle: saline + alcohol): 328 % of control; T/C (endpoint: median survival time, dose: 66.7 mg/kg/injection, schedule: Q01DX001 (ip), vehicle: saline with Tween-80): 463 % of control; T/C (endpoint: median survival time, dose: 100.0 mg/kg/injection, schedule: Q01DX001 (ip), vehicle: other): 116 % of control

Q: How did the T/C (endpoint: mean survival time, dose: 6.25 mg/kg/injection, schedule: Q01DX009 (ip), vehicle: saline with Tween-80) turn out when `Nc1[nH]c(=O)ncc1C(=O)NC(CO)C(=O)O` (stereo not given) was run?
A: 100 % of control

Q: What about the T/C (endpoint: mean survival time, dose: 12.5 mg/kg/injection, schedule: Q01DX009 (ip), vehicle: saline with Tween-80) of the same compound?
A: 102 % of control

Q: What about the T/C (endpoint: mean survival time, dose: 25.0 mg/kg/injection, schedule: Q01DX009 (ip), vehicle: saline with Tween-80) of the same compound?
A: 104 % of control

Q: Which T/C (endpoint: mean survival time, dose: 100.0 mg/kg/injection, schedule: Q01DX009 (ip), vehicle: saline with Tween-80) does the source give for `O=Cc1cc([N+](=O)[O-])ccc1OCC(=O)O` here?
A: 92 % of control

Q: And the T/C (endpoint: mean survival time, dose: 200.0 mg/kg/injection, schedule: Q01DX009 (ip), vehicle: saline with Tween-80)?
A: 95 % of control

Q: And the T/C (endpoint: mean survival time, dose: 400.0 mg/kg/injection, schedule: Q01DX009 (ip), vehicle: saline with Tween-80)?
A: 96 % of control

Q: Which T/C (endpoint: mean survival time, dose: 100.0 mg/kg/injection, schedule: Q04DX002 (ip), vehicle: saline with Tween-80) does the source give for `CCOC(=O)C1(C(C)CC)SCCCS1` (stereo not given) here?
A: 97 % of control

Q: What about the T/C (endpoint: mean survival time, dose: 200.0 mg/kg/injection, schedule: Q04DX002 (ip), vehicle: saline with Tween-80) of the same compound?
A: 97 % of control

Q: And the T/C (endpoint: mean survival time, dose: 400.0 mg/kg/injection, schedule: Q04DX002 (ip), vehicle: saline with Tween-80)?
A: 94 % of control

Q: How did the T/C (endpoint: mean survival time, dose: 12.5 mg/kg/injection, schedule: Q01DX005 (ip), vehicle: Klucel (hydroxypropylcellulose) (HPC)) turn out when `CCOC(=O)C(OCC)C1=Cc2ccccc2CC1` (stereo not given) was run?
A: 97 % of control

Q: What about the T/C (endpoint: mean survival time, dose: 25.0 mg/kg/injection, schedule: Q01DX005 (ip), vehicle: Klucel (hydroxypropylcellulose) (HPC)) of the same compound?
A: 97 % of control

Q: And the T/C (endpoint: mean survival time, dose: 50.0 mg/kg/injection, schedule: Q01DX005 (ip), vehicle: Klucel (hydroxypropylcellulose) (HPC))?
A: 98 % of control

Q: What about the T/C (endpoint: mean survival time, dose: 100.0 mg/kg/injection, schedule: Q01DX005 (ip), vehicle: Klucel (hydroxypropylcellulose) (HPC)) of the same compound?
A: 93 % of control

Q: What about the T/C (endpoint: mean survival time, dose: 200.0 mg/kg/injection, schedule: Q01DX005 (ip), vehicle: Klucel (hydroxypropylcellulose) (HPC)) of the same compound?
A: 89 % of control

Q: And the T/C (endpoint: mean survival time, dose: 400.0 mg/kg/injection, schedule: Q01DX005 (ip), vehicle: Klucel (hydroxypropylcellulose) (HPC))?
A: 98 % of control
